The text below walks through data of patent US12642270B2, “Substituted thiophene carboxamides, thiophene carboxylic acids and derivatives thereof” (Bayer Aktiengesellschaft, priority 2019, dated 2026).

The nature of the data set: Log P by HPLC on reversed phase columns (EEC directive 79/831 Annex V.A8). Format: physicochemical. As to conditions: for chromatographic logP: reversed phase HPLC columns. The method, boiled down: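 Reversed-phase HPLC per EEC 79/831 Annex V.A8, LC-UV with 10→95% acetonitrile linear gradient; eluent [a] 0.1% formic acid (acidic), [b] 0.001 M ammonium acetate (neutral), [c] 0.1% phosphoric acid (acidic). Calibrated with C3–C16 straight-chain alkan-2-ones, linear interpolation of retention times; multiple values joined by "+".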

The mark [1] stands for this setting: method [a]: LC-UV, acidic range, 0.1% formic acid in water and acetonitrile.
Where [2] appears, read: value in preparation example, method not marked.

With `O=C(O)c1sc(Br)c(Br)c1C(F)(F)F` [II.004], under setting [1], the LogP is 2.44^[a].

For the molecule `O=C(O)c1sc(Cl)c(Br)c1F` [II.005], the LogP under setting [1] was 2.14^[a].

`O=C(O)c1sc(Br)c(Br)c1C(F)F` [II.006]: the LogP under setting [1] is 2.46^[a].

Take `Cc1c(C(=O)O)sc(Br)c1C#N` [II.007]: the LogP under setting [1] was 2.03^[a].

With `Cc1c(C(=O)O)sc(Cl)c1C#N` [II.008], the LogP under setting [1] was 1.94^[a].

`O=C(O)c1sc(Br)c(Cl)c1F` [II.009]: the LogP under setting [1] was 2.18^[a].

In the case of `O=C(O)c1sc(Br)c(Cl)c1Cl` [II.010], the LogP under setting [1] was 2.51^[a].

`O=C(O)c1sc(Cl)c(Br)c1Br` [II.011]: the LogP under setting [1] was 2.57^[a].

`O=C(O)c1sc(Cl)c(Br)c1Cl` [II.012]: the LogP under setting [1] is 2.44^[a].

Turning to `Cc1sc(C(=O)O)c(F)c1Br` [II.013], under setting [1], the LogP is 2.08^[a].

On to `Cc1c(C(=O)O)sc(Cl)c1Br` [II.014], for which the LogP under setting [1] was 2.80^[a].

Consider `Cc1c(C(=O)O)sc(Br)c1Cl` [II.015], for which, under setting [1], the LogP is 2.75^[a].

In the case of `Cc1c(C(=O)O)sc(C#N)c1Cl` [II.016], the LogP under setting [1] was 1.95^[a].

As for `Cc1c(C(=O)O)sc(I)c1Br` [II.017], the LogP under setting [1] was 2.86^[a].

On to `Cc1c(C(=O)O)sc(Br)c1I` [II.018], for which the LogP under setting [1] is 2.92^[a].

On to `COC(=O)c1sc(Br)c(Br)c1C(F)(F)F` [II.019], for which, under setting [1], the LogP is 4.08^[a].

Take `COC(=O)c1sc(Br)c(Cl)c1F` [II.020]: the LogP under setting [1] was 3.47^[a].

Regarding `COC(=O)c1sc(Br)c(C#N)c1Cl` [II.021], the LogP under setting [1] is 2.87^[a].

For `COC(=O)c1sc(Cl)c(C#N)c1Cl` [II.022], the LogP under setting [1] is 2.82^[a].

In the case of `COC(=O)c1sc(Cl)c(Cl)c1C(F)F` [II.023], under setting [1], the LogP is 3.77^[a].

In the case of `Cc1sc(C(=O)OCC(C)C)c(F)c1Br` [II.024], the LogP under setting [1] was 4.77^[a].

In the case of `COC(=O)c1sc(Cl)c(Br)c1F` [II.025], the LogP under setting [1] was 3.47^[a].

As for `COC(=O)c1sc(Cl)c(Br)c1Br` [II.026], the LogP under setting [1] is 4.02^[a].

For the molecule `COC(=O)c1sc(Cl)c(Br)c1Cl` [II.027], the LogP under setting [1] was 3.94^[a].

`COC(=O)c1sc(Br)c(C#N)c1C` [II.029]: the LogP under setting [1] is 3.06^[a].

For `CCOC(=O)c1sc(I)c(Br)c1C` [II.030], the LogP under setting [1] was 5.03^[a].

For the molecule `CCOC(=O)c1sc(Br)c(I)c1C` [II.031], under setting [1], the LogP was 5.03^[a].

On to `CCOC(=O)c1sc(Cl)c(Br)c1C` [II.032], for which, under setting [1], the LogP was 5.00^[a].

For `N#Cc1sc(C(=O)O)cc1Cl` [II.034], the LogP under setting [1] is 1.33^[a].

Regarding `O=C(O)c1cc(Br)c(F)s1` [II.035], under setting [1], the LogP is 1.94^[a].

Turning to `N#Cc1sc(C(=O)O)cc1Br` [II.036], the LogP under setting [1] is 1.41^[a].

Take `O=C(O)c1cc(F)c(Cl)s1` [II.037]: the LogP under setting [1] was 1.89^[a].

Turning to `Cc1cc(C(=O)O)sc1Cl` [II.038], the LogP under setting [1] was 2.16^[a].

As for `O=C(O)c1cc(F)c(Br)s1` [II.039], the LogP under setting [1] is 1.02^[a].

For the molecule `O=C(O)c1cc(Cl)c(Br)s1` [II.040], under setting [1], the LogP was 2.23^[a].

As for `N#Cc1cc(C(=O)O)sc1Cl` [II.041], under setting [1], the LogP is 1.44^[a].

In the case of `O=C(O)c1cc(Br)c(Cl)s1` [II.043], the LogP under setting [1] was 2.28^[a].

As to `N#Cc1c(Br)sc(C(=O)O)c1Br` [II.044], under setting [1], the LogP is 1.73^[a].

Turning to `COC(=O)c1cc(C#N)c(Cl)s1` [II.045], under setting [1], the LogP was 2.44^[a].

Turning to `COC(=O)c1cc(Cl)c(Br)s1` [II.047], under setting [1], the LogP was 3.29^[a].

Take `CCOC(=O)c1cc(Br)c(Cl)s1` [II.048]: the LogP under setting [1] was 4.21^[a].

With `COC(=O)c1cc(F)c(Br)s1` [II.049], the LogP under setting [1] was 3.04^[a].

Turning to `CC(C)COC(=O)c1cc(Cl)c(Br)s1` [II.050], under setting [1], the LogP is 5.28^[a].

With `COC(=O)c1sc(C#N)c(Br)c1C` [II.051], under setting [1], the LogP was 3.19^[a].

Consider `COC(=O)c1cc(Br)c(C#N)s1` [II.052], for which the LogP under setting [1] was 2.63^[a].

For orientation: chromatographic logP means lipophilicity estimated from chromatographic retention. `CCOC(=O)c1sc(Cl)c(Cl)c1C#N` [II.053, ethyl 4,5-dichloro-3-cyanothiophene-2-carboxylate]: the chromatographic logP under setting [1] was found to be 3.54 and the chromatographic logP under setting [2] turned out to be 3.54.

Regarding `COC(=O)c1sc(C#N)c(Br)c1Br` [II.054], under setting [1], the LogP is 3.07^[a].

Take `COC(=O)c1sc(Br)c(Br)c1C(F)F` [II.055, methyl 4,5-dibromo-3-(difluoromethyl)thiophene-2-carboxylate]: the chromatographic logP runs as follows: under setting [1], 3.81; under setting [2], 3.81.

Turning to `CCOC(=O)c1sc(I)c(Cl)c1Cl` [II.056], the LogP under setting [1] is 4.57^[a].

In the case of `O=C(O)c1sc(I)c(Cl)c1Cl` [II.057], the LogP under setting [1] is 3.01^[a].

`COC(=O)c1sc(C)c(Cl)c1Cl` [II.058]: under setting [1], the LogP is 3.49^[a].

For the molecule `COC(=O)c1sc(F)c(Br)c1Cl` [II.059], the LogP under setting [1] is 3.44^[a].

For the molecule `CC(C)COC(=O)c1sc(Cl)c(Br)c1F` [II.060], the LogP under setting [1] was 5.28^[a].

For the molecule `N#Cc1sc(C(=O)O)c(Br)c1Br` [II.061], the LogP under setting [1] is 1.66^[a].

Take `CCOC(=O)c1cc(Cl)c(F)s1` [II.062]: the LogP under setting [1] was 3.63^[a].

Turning to `CCOC(=O)c1sc(C)c(Cl)c1Cl` [II.063], the LogP under setting [1] is 4.03^[a].

With `O=C(O)c1cc(Cl)c(F)s1` [II.064], under setting [1], the LogP is 2.16^[a].

With `Cc1sc(C(=O)O)c(Cl)c1Cl` [II.065], the LogP under setting [1] is 2.49^[a].

On to `CCOC(=O)c1sc(F)c(Br)c1Cl` [II.066], for which, under setting [1], the LogP was 4.02^[a].

Turning to `CCOC(=O)c1sc(Cl)c(Br)c1F` [II.067], the LogP under setting [1] was 4.08^[a].

Regarding `CCOC(=O)c1sc(C#N)c(Cl)c1Cl` [II.068], the LogP under setting [1] is 3.50^[a].

As for `COC(=O)c1sc(Br)c(Br)c1C#N` [II.069], the LogP under setting [1] was 3.26^[a].

For `O=C(O)c1sc(Br)c(Cl)c1Br` [II.070], under setting [1], the LogP is 2.41^[a].

On to `COC(=O)c1sc(Br)c(Cl)c1Br` [II.071], for which the LogP under setting [1] is 4.01^[a].

Consider `CCOC(=O)c1cc(Cl)c(C#N)s1` [II.072], for which the LogP under setting [1] is 3.10^[a].

Take `CCOC(=O)c1sc(Cl)c(C)c1Cl` [II.073]: the LogP under setting [1] is 4.59^[a].

Take `Cc1c(Cl)sc(C(=O)O)c1Cl` [II.074]: the LogP under setting [1] was 2.76^[a].

As to `COC(=O)c1sc(Br)c(C(F)F)c1Br` [II.075], the LogP under setting [1] is 3.54^[a].

With `O=C(O)c1sc(F)c(Br)c1Cl` [II.076], the LogP under setting [1] was 2.19^[a].

Regarding `COC(=O)c1sc(Cl)c(Br)c1C#N` [II.077], the LogP under setting [1] is 2.99^[a].

For the molecule `O=C(O)c1sc(Br)c(C(F)F)c1Br` [II.078], the LogP under setting [1] is 2.26^[a].

With `COC(=O)c1sc(C#N)c(Cl)c1Cl` [II.079], the LogP under setting [1] was 2.99^[a].

As for `COC(=O)c1sc(C#N)c(Br)c1Cl` [II.080], the LogP under setting [1] is 3.02^[a].

For `O=C(O)c1cc(Br)c(C(F)(F)F)s1` [II.081], the LogP under setting [1] is 2.46^[a].

With `CCOC(=O)c1cc(Br)c(C(F)(F)F)s1` [II.082], under setting [1], the LogP was 4.40^[a].

`N#Cc1c(C(=O)O)sc(Cl)c1Br` [II.083]: the LogP under setting [1] was 1.70^[a].

On to `COC(=O)c1sc(C)c(Br)c1F` [II.084], for which the LogP under setting [1] is 3.15^[a].

For the molecule `COC(=O)c1sc(F)c(Br)c1Br` [II.086], the LogP under setting [1] is 3.56^[a].

On to `N#Cc1sc(C(=O)O)c(Cl)c1Br` [II.087], for which, under setting [1], the LogP was 1.55^[a].

For the molecule `N#Cc1sc(C(=O)O)c(Cl)c1Cl` [II.088], the LogP under setting [1] was 1.51^[a].

Regarding `CCOC(=O)c1sc(Cl)c(Br)c1Cl` [II.089], the LogP under setting [1] was 4.62^[a].

Regarding `CCOC(=O)c1cc(C#N)c(Cl)s1` [II.090], the LogP under setting [1] is 3.01^[a].

Regarding `CCOC(=O)c1sc(Br)c(C#N)c1Cl` [II.091], under setting [1], the LogP was 3.44^[a].

Take `CCOC(=O)c1sc(C#N)c(Cl)c1Br` [II.092]: under setting [1], the LogP was 3.56^[a].

For `CCOC(=O)c1sc(Cl)c(C#N)c1Br` [II.093], the LogP under setting [1] is 3.46^[a].

Turning to `O=C(O)c1sc(F)c(Br)c1Br` [II.094], the LogP under setting [1] was 2.26^[a].

In the case of `COC(=O)c1sc(Cl)c(C#N)c1Br` [II.095], the LogP under setting [1] was 2.92^[a].

`COC(=O)c1sc(C#N)c(Cl)c1Br` [II.096]: the LogP under setting [1] is 3.04^[a].

Regarding `N#Cc1sc(C(=O)O)c(Br)c1Cl` [II.097], the LogP under setting [1] was 1.64^[a].

As to `N#Cc1c(Cl)sc(C(=O)O)c1Br` [II.098], the LogP under setting [1] was 1.68^[a].

Take `O=C(O)c1sc(C(F)F)c(Br)c1Br` [II.099]: the LogP under setting [1] is 2.51^[a].

On to `N#Cc1cc(C(=O)O)sc1Br` [II.100], for which the LogP under setting [1] was 1.48^[a].

As to `Cc1c(C(=O)O)sc(F)c1Cl` [II.101], under setting [1], the LogP was 2.45^[a].

As for `Cc1c(C(=O)O)sc(F)c1Br` [II.102], under setting [1], the LogP was 2.53^[a].

On to `N#Cc1c(C(=O)O)sc(Cl)c1Cl` [II.103, 4,5-dichloro-3-cyanothiophene-2-carboxylic acid], for which the chromatographic logP under setting [1] stood at 1.61 and the chromatographic logP under setting [2] is 1.61.

Regarding `N#Cc1c(C(=O)O)sc(Br)c1Br` [II.104], the LogP under setting [1] is 1.71^[a].
